# Data: patent US10144736B2 (Gilead Sciences, Inc., priority 2006, dated 2018)
# Read-outs that look alike come from different tables or passages of the source.
# How the values were obtained:
# Huh-7 HCV replicon cells = experiment: CC50 assay (CellTiter-Glo) in Huh-7 HCV replicon cells; type: cell-based, human; conditions: 3 days incubation, 50% cytostatic concentration
# Method: (§1) The anti HCV activity of specifically substituted pteridine derivatives was tested in a human hepatoma Huh-7 cell line harbouring a HCV replicon. The assay comprised the following steps:
# (§2) Step 1: compound preparation and serial dilution involved the following alternatives, depending upon the water solubility of pteridine derivative being tested:
# (§3) • 1. with respect to water soluble pteridine derivatives, 500 μL of solution in cell media (DMEM, 10% FBS, P/S, L-Glutamine) was prepared with a concentration that is twice the concentration of the starting final serial dilution concentration. 150 μL of the solution was added to the pre-specified wells in column 1 of a 96-well cell culture plate (PerkinElmer, white plate, cat. #6005181, for EC50 assay; black plate, cat. #6005182 for CC50 assay). The rest of the plate, i.e. columns 2-12, was filled with 100 μL of cell media. The plate was then placed on a Precision 2000 Workstation in order to start serial dilution. Pteridine compounds were diluted three times each step from column 1 to column 10. Column 11 was used as a blank control (no pteridine compound added). • 2. With respect to poorly water soluble pteridine derivatives, DMSO was used as a solvent, and serial dilution was performed in 50% DMSO in water, in a 384-well plate. A solution containing the relevant compound at 100-fold the concentration of the starting final serial dilution concentration was prepared in 50% DMSO in water and added to the pre-specified wells in column 1 of a polypropylene 384-well plate. This plate was then placed on a Precision 2000 Workstation in order to start serial dilution. After serial dilution, 2 μL of the solution was transferred from the 384-well plate to a 96-well cell culture plate containing 100 μL of cell media on a Biomek FX Workstation. The DMSO concentration in the final assay condition was 0.5% after cells have been added to the plate and the total volume in each well was brought to 200 μL. Step 2: to each well of the serial dilution plate prepared in step 1, 100 μL of cell media containing 6000 suspended Huh-7 HCV replicon cells was added with a Multidrop workstation. Plates were incubated for 3 days at 37° C. with 5% CO2. Step 3: detection: • 1) with respect to the EC50 assay, the media in a 96-well cell culture plate was aspirated with a Biotek EL405 plate-washer. A volume of 200 μL of a solution containing a 1:1 mixture of a cell-lysis buffer (commercially available from Promega, Luciferase Cell Culture Lysis 5X Reagent, cat. #E1531) and a luciferase substrate solution (commercially available from Promega, Luciferase Assay, cat. #E4550) was added to each well of the plate with Multidrop. The plate was incubated for 30 minutes at room temperature before the luminescence signal was measured with a TopCount plate-reader. • 2) with respect to the CC50 assay, 100 μL of a pre-mixed CellTiter-Glo (commercially available from Promega, cat. #G7572) solution was added directly to the cell culture in each well of the plate and the luminescence signal was measured with a TopCount plate-reader after 10 minutes of incubation at room temperature.
# (§4) Results are expressed by the following data: • the 50% effective concentration (EC50), i.e. the concentration that protects 50% of the cell monolayer from virus-induced cythopathic effect. • the 50% cytostatic concentration (CC50), i.e. the concentration that results in 50% inhibition of cell growth.
# HCV replicon = experiment: Anti-HCV replicon assay (EC50, luciferase readout); type: cell-based, hepatitis C virus; conditions: human hepatoma Huh-7 cell line harbouring a HCV replicon, 3 days incubation, luciferase signal
# Method: as §1, §2, §3, §4
# [1] = CC50 assay (CellTiter-Glo) in Huh-7 HCV replicon cells; type: cell-based, human; conditions: human, 3 days incubation, 50% cytostatic concentration
# Method: as §1, §2, §3, §4
# [2] = Hepatitis C virus, 72 h, read-out: EC50
SMILES,CC50 at 3 days [1] [µM],EC50 (HCV replicon; [2]) [µM],also measured
Nc1nc(N2CCOCC2)c2nc(-c3ccc(OC(F)(F)F)cc3)cnc2n1 [Example 86],–,–,CC50 (Huh-7 HCV replicon cells): 10 to 20 µM; EC50 (HCV replicon; read-out: EC50): 0.3 to 1 µM
"Nc1nc(N2CCOCC2)c2nc(-c3cccc(F)c3F)cnc2n1 [Example 113, 6-(2,3-difluorophenyl)-4-morpholino-pteridin-2-ylamine]",–,–,CC50 (Huh-7 HCV replicon cells): > 20 µM; EC50 (HCV replicon): 1 to 10 µM
"Nc1nc(N2CCOCC2)c2nc(-c3ccc(NC(=O)C4CC4)cc3)cnc2n1 [Example 142, Cyclopropane carboxylic acid[4-(2-amino-4-morpholin-4-yl-pteridin-6-yl)-phenyl]-amide]",–,–,CC50 (Huh-7 HCV replicon cells): < 10 µM; EC50 (HCV replicon; read-out: EC50): 0.3 to 1 µM
"Nc1nc(N2CCOCC2)c2nc(-c3cccc(Cl)c3)cnc2n1 [Example 82, 6-(3-chlorophenyl)-4-morpholinopteridin-2-ylamine]",> 20,–,"EC50 (HCV replicon; Hepatitis C virus, Huh-7, 72 h): 0.3 to 1 µM"
"CC(C)(C)C(=O)Nc1ccc(-c2cnc3nc(N)nc(N4CCOCC4)c3n2)cc1 [Example 138, N-(4-(2-amino-4-morpholinopteridin-6-yl)phenyl)pivalamide]",10 to 20,1 to 10,–
"CNC(=O)c1ccc(-c2cnc3nc(N)nc(N4CCOCC4)c3n2)cc1 [Example 114, 4-(2-amino-4-morpholinopteridin-6-yl)-N-methylbenzamide]",> 20,1 to 10,–
"CCOc1nc(N)nc2ncc(-c3ccc(OC)c(F)c3)nc12 [Example 3, 4-ethoxy-6-(3-fluoro-4-methoxyphenyl)pteridin-2-ylamine]",> 20,1 to 10,–
"CCOc1nc(N)nc2ncc(-c3ccc(Cl)cc3)nc12 [Example 27, 6-(4-chlorophenyl)-4-ethoxypteridin-2-ylamine]",< 10,–,"EC50 (HCV replicon; Hepatitis C virus, Huh-7, 72 h): 0.3 to 1 µM"
"COc1ccc(-c2cnc3nc(N)nc(N4CCOCC4)c3n2)cn1 [Example 130, 6-(6-methoxypyridin-3-yl)-4-morpholinopteridin-2-ylamine]",> 20,1 to 10,–
"Nc1nc(N2CCOCC2)c2nc(-c3cccnc3)cnc2n1 [Example 108, 4-morpholino-6-(pyridin-3-yl)pteridin-2-ylamine]",10 to 20,0.3 to 1,–
"COC(=O)Nc1ccc(-c2cnc3nc(N)nc(N4CCOCC4)c3n2)cc1 [Example 129, methyl 4-(2-amino-4-morpholinopteridin-6-yl)phenylcarbamate]",< 10,< 0.3,–
"Nc1nc(N2CCOCC2)c2nc(-c3ccc(C(F)(F)F)cc3Cl)cnc2n1 [Example 121, 6-(2-chloro-4-(trifluoromethyl)phenyl)-4-morpholinopteridin-2-ylamine]",10 to 20,1 to 10,–
"CCOc1cccc(-c2cnc3nc(N)nc(N4CCOCC4)c3n2)c1 [Example 126, 6-(3-ethoxyphenyl)-4-morpholinopteridin-2-ylamine]",10 to 20,1 to 10,–
"Nc1nc(N2CCOCC2)c2nc(-c3c(Cl)cccc3Cl)cnc2n1 [Example 95, 6-(2,6-dichlorophenyl)-4-morpholinopteridin-2-ylamine]",10 to 20,–,"EC50 (HCV replicon; Hepatitis C virus, Huh-7, 72 h): 1 to 10 µM"
"Nc1nc(N2CCOCC2)c2nc(-c3cc4ccccc4o3)cnc2n1 [Example 133, 6-(benzofuran-2-yl)-4-morpholinopteridin-2-ylamine]",> 20,0.3 to 1,–
